Measured values from patent publication US20240016924A1, “NEW ADJUVANT TO IMPROVE THE INNATE IMMUNITY” (INSTITUT NATIONAL DE LA SANTÉ ET DE LA RECHERCHE MÉDICALE, priority 2020, published 2024).

Experiments:
Type in all cases: cell-based, human
[1] = test system: autologous CD4+ T cells; assay: DC-T co-cultures, CD4+ T cell proliferation (CFSE)
Protocol: Autologous CD4+ T cells were purified from PMBCs by negative selection according to manufacturer instructions (StemCell Technologies, France) (purity>95%)
DCs and confluent ECs were co-cultured overnight as described above, and DC-EC or eduDC was further incubated with P1 (clade B, 125 μM) or medium for 24 h. Then, DCs were separated and incubated with autologous CD4+ T cells pre-labeled with CFSE (Thermo Fisher) according to the manufacturer's instructions, at a ratio of 1:5 (DC/T). After 5 days of culture, CD4+ T cell proliferation was analyzed by flow cytometry as described (Yeh, Yeh et al. 2013, Qin, Yin et al. 2015) using Phytohaemagglutinin (PHA) (5 μg/mL) as positive control.

[2] = test system: primary HNECs; assay: Quantitative RT-PCR for short and long form TSLP, primary HNECs
Protocol: (§1) The expression of short and long form TSLP was quantified as described (Bjerkan, Schreurs et al. 2015, Dong, Hu et al. 2016). Briefly, total RNA was extracted using Trizol. Five hundred nanograms of RNA were treated with ezDNase Enzyme (Thermo Fisher) to remove genomic DNA, and reverse transcribed into cDNA using the kit SuperScript IV VILO Master Mix according to manufacturer instructions (Thermo Fisher). Quantitative PCR was performed using reported primers (Dong, Hu et al. 2016) and the PowerUp SYBR Green Master Mix according to manufacturer instructions (Thermo Fisher). Reactions were performed in triplicates, with glyceraldehyde-3-phosphate dehydrogenase (GAPDH) as the internal control. Amplification, data acquisition, and analysis were carried out using the LightCycler 480 Software (Roche, Mannheim, Germany). The levels of TSLP mRNA were normalized to the levels of GAPDH using the ΔCt method (Schmittgen and Livak 2008) and were presented as 2-ΔCt values.

[3] = test system: primary HNEC cells; assay: Calcium measurement (Fura-2/AM), primary HNEC cells; details: P1 125 μM vs 2511M, controls at 125 μM, n=3
Protocol: (§2) 70-80% confluent RPMI 2650 or HNEC cells in 24-well plate were loaded with […] Fura-2/AM (Molecular Probes) in basal medium without serum/growth factors for 1 hour at 37° C. Cells were washed twice with mammalian saline (Conche, Boulla et al. 2009) and measurements were performed in complete medium supplied with HEPS (10 mM) and CaCl2 (2 mM) as described add (Conche, Boulla et al. 2009). Images were acquired with an inverted fluorescence microscope (Observer Z1, Zeiss, Germany) and analyzed with MetaMorph software (Guichard, Bonilla et al. 2017) Calcium was measured every 5 seconds by video fluorescence imaging. Results were expressed as 340 nm to 380 nm fluorescence ratio and normalized to the baseline, i.e. ratio at time zero was set as 1.

[4] = test system: nasal RPMI cells; assay: Quantitative RT-PCR for short and long form TSLP, nasal RPMI cells
Protocol: as §1

[5] = test system: CD8-depleted PBMCs cocultured with RPMI 2650 cells; assay: In vitro immunization assay with ovalbumin
Protocol: In vitro immunization assay was performed as reported (Jung, Matsumoto et al. 2007) with modifications. Briefly, 1×10^6 CD8-depleted PBMCs (Human CD8 Depletion Cocktail, StemCell Technologies, France) were cocultured for 24 hrs with RPMI 2650 cells ([…]) pre-seeded in 48 well plates for 48 hrs. Then, ovalbumin (OVA, EndoFit Ovalbumin, 10 µg/mL, Invivogen) alone, OVA together with P1 (5 μM, 25 μM, 125 μM), OVA together with P1 mutant (P1mut, 125 μM), or medium were added to in RPMI 1640 medium supplemented with Non-Essential Amino Acids (NEAA solution, Thermo Fisher), IL-4 ([…]), IL-2 (10 UI/mL) and 2-mercaptoethanol (20 μM) for 7 days.
For the detection of OVA-specific B cells, at indicated time of culture, PMBCs were surface stained with ovalbumin conjugated to fluorescein (OVA-FITC, 20 ug/mL, Thermo), PE-conjugated mouse anti-human CD20 (BD Biosciences, CA, USA), APC-conjugated goat anti-human IgA or donkey anti-human IgG (Jackson ImmunoResearch, PA, USA) as indicated by the manufacturer. Specific labeling was quantified by flow cytometry with a Guava EasyCyte flow cytometer (Merck-Millipore), and analyzed with the dedicated InCyte software, using the following strategy: CD20+ B cells were first gated and cell double positive for OVA-FITC+ and APC-conjugated anti-IgA or anti-IgG were determined as OVA-IgA or IgG-specific B-cell s.
In vitro immunization assays have been used to produce specific monoclonal antibodies using a defined antigen complemented with an adjuvant (Borrebaeck, Danielsson et al. 1987). Here, we establish a mucosal immunization model adapted from (Jung, Matsumoto et al. 2007, Yeh, Yeh et al. 2013, Wijkhuisen, Savatier et al. 2016) and using mucosal DCs based on our results presented above. OVA was selected as the model antigen. Therefore, human CD8-depleted PBMCs (n=5 independent donors) were cocultured with RPMI 2650 cells for one day to educate DCs, and prior to addition of either medium, OVA, OVA plus P1 mutant (P1mut, 125 μM) or OVA plus P1 (5 μM, 25 μM, 125 μM) for seven more days. OVA-specific B cells were quantified by flow cytometry using FITC-conjugated OVA and anti-CD2O-PE to gate on OVA-specific B cells. The Ig isotype of surface B cell receptor (BCR) was next characterized by APC-conjugated anti-human-IgA or anti-human-IgG. […] Similar results were obtained when B cells were stained with anti-CD19-PE.

[6] = test system: nasal RPMI cells; assay: Calcium measurement (Fura-2/AM), nasal RPMI cells; details: P1 125 μM vs 2511M, controls at 125 μM, n=3
Protocol: as §2

## SQNQQEKNEQELLELDKWASLWNWFNITNWLWYIK [P1]
[1]; P1 stimulation on CD4+ T cells alone
  proliferation of CD4+ T cells: has no effect
[1]; peptide-primed eduDCs, 125 μM, 5 days, DC/T 1:5
  proliferation of autologous CD4+ T cells: induced the proliferation of autologous CD4+ T cells
[2]; HNECs, p=0.004, n=6
  increase of lfTSLP transcription compared to unstimulated cells: 5.9 fold
[2]; upon P1 stimulation, primary HNECs
  level of the sfTSLP transcript: remains unchanged
[3]
  extracellular calcium influx (340/380 nm ratio): induces an immediate extracellular calcium influx in a concentration-dependent manner
[4]; p=0.02, n=5
  increase of lfTSLP transcription compared to unstimulated cells: 1.9 fold
[4]; upon P1 stimulation
  level of the sfTSLP transcript: remains unchanged
[5]; OVA plus P1 at 5 μM and 25 μM, 7 days
  induction of OVA-specific B cells: very limited
[5]; OVA plus P1 at 125 μM, 7 days, n=5 donors
  OVA-specific B cells (surface OVA-specific IgA and IgG): significantly enhances OVA recognition by B cells
[5]; absence of nasal epithelial cells during the in vitro immunization
  induction of OVA-specific B cells: not able to induce OVA-specific B cells
[5]; day 7, ELISA
  OVA-specific antibody secretion in culture supernatants: could not be detected by ELISA
[6]
  extracellular calcium influx (340/380 nm ratio): induces an immediate extracellular calcium influx in a concentration-dependent manner
